Data as given in PubChem BioAssay (NCI).
“And” between values parts separate entries of the source, which are not always exact repeats. Equal entries are not always repeated.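 Step 1: Grow cells in 96-well plates. Step 2: Expose to compound for 48 hours at 5 concentrations. Step 3: Interpolate endpoints linearly; if unreached, use highest concentration. The concentration for 50% growth inhibition is given as GI50. The concentration for full growth arrest is given as TGI.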

Experiments:
Assay in all cases: DTP human tumour cell line panel, 48 h
[1] = test system: SR leukemia
[2] = test system: 786-0 renal
[3] = test system: EKVX NSCLC
[4] = test system: MDA-MB-231 breast
[5] = test system: SNB-19 CNS
[6] = test system: OVCAR-5 ovarian
[7] = test system: RXF 393 renal
[8] = test system: U251 CNS
[9] = test system: T-47D breast
[10] = test system: A549 NSCLC

SMILES | GI50 [1] [µM] | TGI [1] [µM] | GI50 [2] [µM] | TGI [2] | GI50 [3] [µM] | TGI [3] [µM] | GI50 [4] [µM] | TGI [4] | GI50 [5] [µM] | TGI [5] | GI50 [6] [µM] | TGI [6] | GI50 [7] [µM] | TGI [7] | GI50 [8] [µM] | TGI [8] | GI50 [9] [µM] | TGI [9] | GI50 [10] [µM] | TGI [10] [µM]
COC(=O)c1cccc(NC(=O)c2ccc(NC3=C(Cl)C(=O)N(Cc4ccccc4)C3=O)cc2)c1 | 1.87 | 7.56 | 10.5 | 25.2 µM | 23.6 | 63.6 | 10.7 | 32.1 µM | 28.5 | > 100 µM | 3.63 | 29.4 µM | 13.9 | 60.2 µM | 12.7 | 28.3 µM | 4.46 | 63.3 µM | 17.5 | 48.7
CC[C@@H](C)/C=C(C)/C=C/C(=O)c1c(O)c(-c2ccc(O)cc2)cn(OC2CC(=O)CCC(C)OC(=O)CC2O)c1=O (some centres undefined) | 0.21 | 1.27 | 0.386 | 4.09 µM | 1.39 | 12.3 | 0.85 | 24.3 µM | 0.554 | 14.9 µM | 2.35 | 23.3 µM | 0.386 | 17.8 µM | 0.373 | 12.5 µM | 0.383 | 15.3 µM | 1.74 | 15.6
O=C(CN1CCN(C(=O)c2ccco2)CC1)Nc1ccc(Cl)cc1C(=O)c1ccccc1Cl | 0.896 | 2.76 | 13.6 | 42.5 µM | 5.53 | 30 | 9.51 | 46.1 µM | 12.1 | 94.7 µM | 24 | 63 µM | 3.85 | 18 µM | 8 | 23.6 µM | 2.32 | 15.4 µM | 5.61 | 39.4
COc1ccc(/C=C\c2cc(OC)c(OC)c(OC)c2)c(NS(=O)(=O)c2ccc(F)cc2)c1O | 0.041 | > 68.1 | 0.294 | 47.5 µM | 0.466 | > 100 | 0.0977 | 70.9 µM | 0.156 | > 100 µM | 0.202 | > 100 µM | 0.0542 | > 100 µM | 0.142 | > 100 µM | 38.5 | > 100 µM | 0.164 | > 100
O=C(N/N=C/c1ccncc1)c1ccc(F)cc1 | > 40 | > 40 | > 40 | > 40 µM | > 40 | > 40 | > 40 | > 40 µM | > 40 | > 40 µM | > 40 | > 40 µM | > 40 | > 40 µM | > 40 | > 40 µM | > 40 | > 40 µM | > 40 | > 40
Cc1cc(C)c2c(c1)N(C)c1ncnc(-n3cnc4cc(C)ccc43)c1CC2C (centres undefined) | 0.787 | 8.62 | 3.53 | 15.4 µM | 4.76 | > 100 | 3.03 | 14.6 µM | 4.22 | > 100 µM | 5.52 | 24.4 µM | 2.66 | 9.06 µM | 3.55 | 19.4 µM | 4.17 | 24.9 µM | 4.03 | 56.9
COc1cc(C)[nH]c(=O)c1CNC(=O)c1c(C)n([C@H](C)C2CCN(CC(F)(F)F)CC2)c2ccccc12 | 51.8 | > 100 | 60.3 | > 100 µM | 37.5 | > 100 | 51 | > 100 µM | 74.5 | > 100 µM | > 100 | > 100 µM | 21.7 | 99.5 µM | 90.6 | > 100 µM | 25.9 | > 100 µM | 87.4 | > 100
C[C@]12CC[C@H]3[C@@H](CC[C@]4(O)C[C@@H](O[C@@H]5O[C@H](CO)[C@@H](O[C@@H]6OC[C@@H](O)[C@H](O)[C@H]6O)[C@H](O)[C@H]5O)CC[C@]34C=O)[C@@]1(O)CC[C@@H]2C1=CC(=O)OC1 | 1.06 | 3.27 | 1.42 | 5.19 µM | 0.781 | 1.93 | 3.38 | 22 µM | 2.53 | 9.27 µM | 1.77 | 6.32 µM | 1.25 | 3.11 µM | 1.68 | 5.67 µM | 1.55 | 7.77 µM | 0.581 | 1.28
CCOc1ccc2c(c1)C(=O)c1c-2n(CCCN=[N+]=[N-])c(=O)c2cc([N+](=O)[O-])ccc12 | 0.176 | 11.9 | 4.1 | 22.7 µM | 32.5 | > 100 | 45 | > 100 µM | 4.14 | 85.5 µM | 6.07 | > 100 µM | 28 | > 100 µM | 3.57 | 37.7 µM | 0.102 | 1.24 µM | 10.2 | > 100
O=C(/C=C/C=C/c1ccc2c(c1)OCO2)N/N=C\c1ccc(O)cc1O | 0.571 | > 100 | 2.89 | 11.8 µM | 2.05 | 15.1 | 3.49 | 19.3 µM | 2.79 | 24.2 µM | 3.87 | 27.4 µM | 1.74 | 6.88 µM | 1.64 | 23 µM | 2.55 | 24 µM | 2.93 | 33.8
NC(=O)c1csc(-c2ccc(CO)o2)n1 |  | > 100 |  | > 100 µM |  | > 100 |  | > 100 µM |  | > 100 µM |  | > 100 µM |  | > 100 µM |  | > 100 µM |  | > 100 µM |  | > 100
CCC(C)C1NC(=O)C(NC(=O)C(CC(C)C)N(C)C(=O)[C@@H]2CC(O)CN2C(=O)[C@H](C)O)C(C)OC(=O)[C@H](Cc2ccc(OC)cc2)N(C)C(=O)[C@@H]2CCCN2C(=O)[C@H](CC(C)C)NC(=O)C(C)C(=O)[C@H](C(C)C)OC(=O)CC1O (some centres undefined) | 0.0189 | > 100 | 0.0762 | 1.7 µM and 2.28 µM |  | 3.32 | 0.0926 | 0.991 µM and 3.95 µM | < 0.01 | 3.39 µM and 0.346 µM | 0.417 | 2.53 µM and 2.14 µM | < 0.01 | 0.481 µM and 0.112 µM | < 0.01 | 1.63 µM and 0.677 µM | 0.0137 | 0.71 µM and 2.07 µM | 0.0277 | 1.91
